Measurements taken from PMC8004798, “Identification of Bioactive Compounds from Marine Natural Products and Exploration of Structure-Activity Relationships (SAR)” (Antibiotics, 2021).
Converted amounts (≈) assume the structure as drawn. Like-named read-outs stand apart in the source and are kept apart here.

Experiments:
[1] = tested on: human embryonic kidney cells 293 (HEK293); assay: Resazurin cytotoxicity assay, HEK 293
Description: (§1) To identify marine samples with activity against MRSA, 1434 compounds from the AIMS Bioresources Library (provided by the Queensland Compound Library, Brisbane, Australia, now called Compounds Australia) were screened in a resazurin cell viability assay.
(§2) Toxicity of AIMS Extract Library. Human alveolar epithelial cells (A549), Madin-Darby canine kidney epithelial cells (MDCK), human leukaemia cells (THP-1), human hepatocellular carcinoma cells (Hep-G2) and human embryonic kidney cells 293 (HEK293) were grown and differentiated in complete RPMI (Roswell Park Memorial Institute Medium) and DMEM (Dulbecco’s Modified Eagle’s medium) tissue culture media (RPMIc and DMEMc, from the Thermo Fisher Scientific, Waltham, MA, USA) by adding 10% FBS, 200 µM L-glutamine and 1 mM HEPES buffer solution. To determine toxicity of the AIMS extract library, 2 × 10^5 of each cell type were added to a 96-well plate and left for 48 h in a humidified 5% CO2 incubator at 37 °C to adhere. Extract samples at a final concentration of 0.5 mg mL^−1 were added to the wells, then the plates incubated for 4 more days in a humidified 5% CO2 incubator at 37 °C. Then, resazurin (10 μL of 0.05% w/v) was added and after 4 h, fluorescence measured as described previously. The cell viability was calculated as percentage fluorescence relative to untreated cells.

[2] = tested on: methicillin-resistant Staphylococcus aureus (MRSA); assay: Resazurin bacterial inhibition assay (MIC), MRSA; format: cell-based; conditions: Staphylococcus aureus, MRSA, 18 h, read-out: Minimum Inhibitory Concentration MRSA
[3] = tested on: M. tuberculosis H37Rv; assay: Resazurin bacterial inhibition assay (MIC), M. tuberculosis; format: cell-based; conditions: Mycobacterium tuberculosis, 168 h, commercial compounds, 7 days, read-out: Minimum Inhibitory Concentration M. tuberculosis H37Rv
[4] = tested on: human leukaemia cells (THP-1); assay: Resazurin cytotoxicity assay, THP-1
Description: as §1
as §2, with “Extract samples at a final concentration of 0.5 mg mL^−1 were added to the wells, then the plates incubated for 4 more days in a humidified 5% CO2 incubator at 37 °C.” left out

[5] = tested on: human hepatocellular carcinoma cells (Hep-G2); assay: Resazurin cytotoxicity assay, HepG2
Description: as §1, §2

[6] = tested on: E. coli EC958; assay: Resazurin bacterial inhibition assay (MIC), E. coli; format: cell-based; conditions: Escherichia coli, read-out: Minimum Inhibitory Concentration E. coli
[7] = tested on: P. aeruginosa PAO1; assay: Resazurin bacterial inhibition assay (MIC), P. aeruginosa; format: cell-based; conditions: Pseudomonas aeruginosa, read-out: Minimum Inhibitory Concentration P. aeruginosa
[8] = tested on: Human alveolar epithelial cells (A549); assay: Resazurin cytotoxicity assay, A549
Description: as §1, §2

[9] = commercial compounds, resazurin
[10] = EC958, commercial compounds, 18 h, resazurin
[11] = PAO1, commercial compounds, 18 h, resazurin
[12] = commercial compounds, unit from Table 8 head

| Compound | Minimum Toxicity Concentration HEK 293 ([1]; human, 4 days) [µM] | MIC [2, 9] [µM] | MIC [3] [µM] | Minimum Toxicity Concentration THP-1 ([4]; human, 4 days) [µM] | Minimum Toxicity Concentration HepG2 ([5]; human, 4 days) [µM] | MIC [6, 10] [µM] | MIC [7, 11] [µM] | Minimum Toxicity Concentration A549 ([8]; human, 4 days) [µM] | Minimum Toxicity Concentration HEK 293 [1, 12] [µM] | Minimum Toxicity Concentration THP-1 [4, 12] [µM] | Minimum Toxicity Concentration HepG2 [5, 12] [µM] | Minimum Toxicity Concentration A549 [8, 12] [µM] | MIC [2] [µM] | MIC ([6]; EC958, 18 h) [µM] | MIC ([7]; PAO1, 18 h) [µM] |
| --- | --- | --- | --- | --- | --- | --- | --- | --- | --- | --- | --- | --- | --- | --- | --- |
| c1ccc(CNCc2ccccc2)cc1 [Dibenzylamine] | >100 | > 100 | > 100 | >100 | >100 | > 100 | 12.5 (≈ 2.47 µg/mL) | >100 | – | – | – | – | – | – | – |
| Cc1cc(-c2ccccc2)c2ccc3c(-c4ccccc4)cc(C)nc3c2n1 [2,9-Dimethyl-4,7-diphenyl-1,10-phenanthroline] | 0.1 | 25 (≈ 9.01 µg/mL) | 50 (≈ 18 µg/mL) | >100 | 0.1 | 0.78 (≈ 0.281 µg/mL) | 50 (≈ 18 µg/mL) | >100 | – | – | – | – | – | – | – |
| Cc1cnc2c(ccc3c(C)c(C)cnc32)c1C [3,4,7,8-Tetramethyl-1,10-phenanthroline] | – | 0.3 (≈ 0.0709 µg/mL) | 0.1 (≈ 0.0236 µg/mL) | – | – | 0.3 (≈ 0.0709 µg/mL) | 0.3 (≈ 0.0709 µg/mL) | – | 0.1 | 0.1 | 0.1 | 0.1 | – | – | – |
| c1ccc2cnccc2c1 [Isoquinoline] | – | > 100 | 0.1 (≈ 0.0129 µg/mL) | – | 3 | > 100 | > 100 | – | – | – | – | – | – | – | – |
| Cc1ccc2ccc3ccc(C)nc3c2n1 [Neocuproine hemihydrate] | – | 0.09 | 0.1 | – | – | 0.3 | 0.04 | – | 0.1 | 12 | 0.1 | 6.2 | – | – | – |
| NCc1ccccc1 [Benzylamine] | >100 | > 100 | > 100 | >100 | >100 | > 100 | > 100 | >100 | – | – | – | – | – | – | – |
| CCCCCCCCN(CCCCCCCC)CCCCCCCC [Trioctylamine] | – | 12.5 (≈ 4.42 µg/mL) | 0.02 (≈ 0.00707 µg/mL) | – | – | 25 (≈ 8.84 µg/mL) | 25 (≈ 8.84 µg/mL) | – | 6 | 3.1 | >100 | 50 | – | – | – |
| O=[N+]([O-])c1cc2cccnc2c2ncccc12 [5-Nitro-1,10-phenanthroline] | 0.1 | 0.09 (≈ 0.0203 µg/mL) | 0.1 (≈ 0.0225 µg/mL) | 0.1 | 0.1 | 0.78 (≈ 0.176 µg/mL) | > 100 | 12 | – | – | – | – | – | – | – |
| c1ccc2ncccc2c1 [Quinoline] | – | > 100 | 0.1 (≈ 0.0129 µg/mL) | – | 3 | > 100 | > 100 | 50 | – | – | – | – | – | – | – |
| CCCCN(CCCC)CCCC [Tributylamine] | – | – | > 100 | – | – | – | – | – | >100 | >100 | >100 | >100 | > 100 | > 100 | 50 (≈ 9.27 µg/mL) |
| Cc1c(C)c2cccnc2c2ncccc12 [5,6-Dimethyl-1,10-phenanthroline] | – | 0.3 (≈ 0.0625 µg/mL) | 0.1 (≈ 0.0208 µg/mL) | – | – | 0.78 (≈ 0.162 µg/mL) | > 100 | – | 0.1 | 0.1 | 0.1 | 0.1 | – | – | – |
